Assay results from ChEMBL document CHEMBL3885861, “Open TG-GATES”.

Species on record: Rattus norvegicus
Test: Open TG-GATES - Regimen: Daily Repeat
Type: toxicity, organism-based, Sprague-Dawley
Set-up: regimen Daily Repeat, gender Male, age 6 weeks
Settings: in vivo, po, 20 mg/kg, route gavage, dose level Middle; for APTT / Bas / Eos / Fbg / Hb / Ht / Lym / MCH / MCHC / MCV / Mono / Neu / PT / Plat / RBC / Ret / WBC: tissue Blood; for KIDNEY_L / KIDNEY_R / KIDNEY_TOTAL: tissue Kidney; for LIVER: tissue Liver; for A/G / ALP / ALT / AST / BUN / CRE / Ca / Cl / DBIL / GLC / IP / K / LDH / Na / PL / RALB / TBIL / TC / TG / TP / gamma-GTP: tissue Plasma

SMILES: CC(C)NNC(=O)c1ccncc1 [IPRONIAZID]
- TERMINAL_BW (72 h, time 3 day): 194.3 g
- APTT (72 h, time 3 day): 22.2 s
- Bas (72 h, time 3 day): 0%
- Eos (72 h, time 3 day): 1%
- Fbg (72 h, time 3 day): 299.2 mg/dL
- Hb (72 h, time 3 day): 14.1 g/dL
- Ht (72 h, time 3 day): 40.8%
- Lym (72 h, time 3 day): 78.8%
- MCH (72 h, time 3 day): 20.7 pg
- MCHC (72 h, time 3 day): 34.6%
- MCV (72 h, time 3 day): 59.9 fL
- Mono (72 h, time 3 day): 2.4%
- Neu (72 h, time 3 day): 17.6%
- PT (72 h, time 3 day): 16.5 s
- Plat (72 h, time 3 day): 134 x10_4/uL
- RBC (72 h, time 3 day): 682.6 x10_4/ul
- Ret (72 h, time 3 day): 5.9%
- WBC (72 h, time 3 day): 72.4 x10_2/uL
- KIDNEY_L (72 h, time 3 day): 0.8 g
- KIDNEY_R (72 h, time 3 day): 0.9 g
- KIDNEY_TOTAL (72 h, time 3 day): 1.7 g
- LIVER (72 h, time 3 day): 8.7 g
- A/G (72 h, time 3 day): 1.2
- ALP (72 h, time 3 day): 1696.2 IU/L
- ALT (72 h, time 3 day): 42 IU/L
- AST (72 h, time 3 day): 74 IU/L
- BUN (72 h, time 3 day): 19.2 mg/dL
- CRE (72 h, time 3 day): 0.2 mg/dL
- Ca (72 h, time 3 day): 10.5 mg/dL
- Cl (72 h, time 3 day): 108.2 meq/L
- DBIL (72 h, time 3 day): 0.002 mg/dL
- GLC (72 h, time 3 day): 175 mg/dL
- IP (72 h, time 3 day): 7.1 mg/dL
- K (72 h, time 3 day): 4.4 meq/L
- LDH (72 h, time 3 day): 262 IU/L
- Na (72 h, time 3 day): 143.2 meq/L
- PL (72 h, time 3 day): 150.8 mg/dL
- RALB (72 h, time 3 day): 3.3 g/dL
- TBIL (72 h, time 3 day): 0.01 mg/dL
- TC (72 h, time 3 day): 80.6 mg/dL
- TG (72 h, time 3 day): 105.2 mg/dL
- TP (72 h, time 3 day): 5.9 g/dL
- gamma-GTP (72 h, time 3 day): 1 IU/L
- TERMINAL_BW ([…], time 7 day): 222.7 g
- TERMINAL_BW ([…], time 14 day): 259.4 g
- TERMINAL_BW ([…], time 28 day): 331.2 g
- APTT ([…], time 7 day): 22.7 s
- Bas ([…], time 7 day): 0%
- Eos ([…], time 7 day): 1%
- Fbg ([…], time 7 day): 311.4 mg/dL
- Hb ([…], time 7 day): 13.3 g/dL
- Ht ([…], time 7 day): 37.6%
- Lym ([…], time 7 day): 82.2%
- MCH ([…], time 7 day): 20.5 pg
- MCHC ([…], time 7 day): 35.4%
- MCV ([…], time 7 day): 57.8 fL
- Mono ([…], time 7 day): 1.8%
- Neu ([…], time 7 day): 13.8%
- PT ([…], time 7 day): 15.4 s
- Plat ([…], time 7 day): 122.6 x10_4/uL
- RBC ([…], time 7 day): 651.6 x10_4/ul
- Ret ([…], time 7 day): 4.2%
- WBC ([…], time 7 day): 73.7 x10_2/uL
- APTT ([…], time 14 day): 20.5 s
- Bas ([…], time 14 day): 0%
- Eos ([…], time 14 day): 0.6%
- Fbg ([…], time 14 day): 320.6 mg/dL
- Hb ([…], time 14 day): 12.5 g/dL
- Ht ([…], time 14 day): 36.8%
- Lym ([…], time 14 day): 76%
- MCH ([…], time 14 day): 19.9 pg
- MCHC ([…], time 14 day): 34%
- MCV ([…], time 14 day): 58.7 fL
- Mono ([…], time 14 day): 2.2%
- Neu ([…], time 14 day): 20.4%
- PT ([…], time 14 day): 16.1 s
- Plat ([…], time 14 day): 122.7 x10_4/uL
- RBC ([…], time 14 day): 628 x10_4/ul
- Ret ([…], time 14 day): 8.9%
- WBC ([…], time 14 day): 105.3 x10_2/uL
- APTT ([…], time 28 day): 24 s
- Bas ([…], time 28 day): 0%
- Eos ([…], time 28 day): 1%
- Fbg ([…], time 28 day): 313.2 mg/dL
- Hb ([…], time 28 day): 13.5 g/dL
- Ht ([…], time 28 day): 39%
- Lym ([…], time 28 day): 80.8%
- MCH ([…], time 28 day): 20.6 pg
- MCHC ([…], time 28 day): 34.5%
- MCV ([…], time 28 day): 59.6 fL
- Mono ([…], time 28 day): 1.2%
- Neu ([…], time 28 day): 16.6%
- PT ([…], time 28 day): 16.3 s
- Plat ([…], time 28 day): 108.1 x10_4/uL
- RBC ([…], time 28 day): 654.8 x10_4/ul
- Ret ([…], time 28 day): 6.7%
- WBC ([…], time 28 day): 133.5 x10_2/uL
- KIDNEY_L ([…], time 7 day): 0.9 g
- KIDNEY_R ([…], time 7 day): 0.9 g
- KIDNEY_TOTAL ([…], time 7 day): 1.8 g
- KIDNEY_L ([…], time 14 day): 1 g
- KIDNEY_R ([…], time 14 day): 1 g
- KIDNEY_TOTAL ([…], time 14 day): 2.1 g
- KIDNEY_L ([…], time 28 day): 1.2 g
- KIDNEY_R ([…], time 28 day): 1.2 g
- KIDNEY_TOTAL ([…], time 28 day): 2.4 g
- LIVER ([…], time 7 day): 9.4 g
- LIVER ([…], time 14 day): 10.8 g
- LIVER ([…], time 28 day): 12.6 g
- A/G ([…], time 7 day): 1.2
- ALP ([…], time 7 day): 1298.6 IU/L
- ALT ([…], time 7 day): 36.2 IU/L
- AST ([…], time 7 day): 75 IU/L
- BUN ([…], time 7 day): 18.6 mg/dL
- CRE ([…], time 7 day): 0.2 mg/dL
- Ca ([…], time 7 day): 10.4 mg/dL
- Cl ([…], time 7 day): 107.6 meq/L
- DBIL ([…], time 7 day): 0.004 mg/dL
- GLC ([…], time 7 day): 179.4 mg/dL
- IP ([…], time 7 day): 6.6 mg/dL
- K ([…], time 7 day): 4.2 meq/L
- LDH ([…], time 7 day): 206.4 IU/L
- Na ([…], time 7 day): 142.2 meq/L
- PL ([…], time 7 day): 154.8 mg/dL
- RALB ([…], time 7 day): 3.1 g/dL
- TBIL ([…], time 7 day): 0.006 mg/dL
- TC ([…], time 7 day): 88.6 mg/dL
- TG ([…], time 7 day): 89 mg/dL
- TP ([…], time 7 day): 5.7 g/dL
- gamma-GTP ([…], time 7 day): 1.4 IU/L
- A/G ([…], time 14 day): 1.1
- ALP ([…], time 14 day): 1067 IU/L
- ALT ([…], time 14 day): 40.2 IU/L
- AST ([…], time 14 day): 70.8 IU/L
- BUN ([…], time 14 day): 18.2 mg/dL
- CRE ([…], time 14 day): 0.2 mg/dL
- Ca ([…], time 14 day): 10.4 mg/dL
- Cl ([…], time 14 day): 106.6 meq/L
- DBIL ([…], time 14 day): 0.004 mg/dL
- GLC ([…], time 14 day): 182.6 mg/dL
- IP ([…], time 14 day): 6.7 mg/dL
- K ([…], time 14 day): 4.3 meq/L
- LDH ([…], time 14 day): 154.6 IU/L
- Na ([…], time 14 day): 142.2 meq/L
- PL ([…], time 14 day): 153.8 mg/dL
- RALB ([…], time 14 day): 3 g/dL
- TBIL ([…], time 14 day): 0.026 mg/dL
- TC ([…], time 14 day): 85 mg/dL
- TG ([…], time 14 day): 118.6 mg/dL
- TP ([…], time 14 day): 5.7 g/dL
- gamma-GTP ([…], time 14 day): 1.8 IU/L
- A/G ([…], time 28 day): 1.1
- ALP ([…], time 28 day): 1143.8 IU/L
- ALT ([…], time 28 day): 37.2 IU/L
- AST ([…], time 28 day): 68 IU/L
- BUN ([…], time 28 day): 17.4 mg/dL
- CRE ([…], time 28 day): 0.2 mg/dL
- Ca ([…], time 28 day): 10.4 mg/dL
- Cl ([…], time 28 day): 106.2 meq/L
- DBIL ([…], time 28 day): 0 mg/dL
- GLC ([…], time 28 day): 184.2 mg/dL
- IP ([…], time 28 day): 6.9 mg/dL
- K ([…], time 28 day): 4.2 meq/L
- LDH ([…], time 28 day): 157.6 IU/L
- Na ([…], time 28 day): 141.8 meq/L
- PL ([…], time 28 day): 138.4 mg/dL
- RALB ([…], time 28 day): 3.1 g/dL
- TBIL ([…], time 28 day): 0.038 mg/dL
- TC ([…], time 28 day): 68.4 mg/dL
- TG ([…], time 28 day): 122.6 mg/dL
- TP ([…], time 28 day): 5.9 g/dL
- gamma-GTP ([…], time 28 day): 2.2 IU/L
